Assay results as given in BindingDB's records for doi:10.1016/0960-894X(95)00537-3 (1995).

Molecular target: Gastrin/cholecystokinin type B receptor (Cavia porcellus)
Experiment: Inhibitory activity towards binding of [125I]Bolton-Hunter-CCK-8 to CCKB receptor in guinea pig cortical tissue

IC50	SMILES
> 10000 nM	Cc1cccc(NC(=O)N[C@H](CCC(=O)OCc2ccccc2)C(=O)N2CCN(C(=O)c3ccccc3)CC2)c1
3900 nM	Cc1cccc(NC(=O)N[C@H](CCc2ccccc2)C(=O)N2CCC(C(=O)c3ccccc3)CC2)c1 [1-[(R)-1-(4-Benzoyl-piperidine-1-carbonyl)-3-phenyl-propyl]-3-m-tolyl-urea]
4800 nM	CCCC[C@@H](NC(=O)Nc1cccc(C)c1)C(=O)N1CCC(C(=O)c2ccccc2)CC1 [1-[(R)-1-(4-Benzoyl-piperidine-1-carbonyl)-pentyl]-3-m-tolyl-urea]
> 5900 nM	Cc1cccc(NC(=O)N[C@H](COCc2ccccc2)C(=O)N2CCC(Cc3ccccc3)CC2)c1 [1-[(R)-1-Benzyloxymethyl-2-(4-benzyl-piperidin-1-yl)-2-oxo-ethyl]-3-m-tolyl-urea]
> 6900 nM	CC(=O)C1CCN(C(=O)[C@@H](COCc2ccccc2)NC(=O)Nc2cccc(C)c2)CC1 [1-[(R)-2-(4-Acetyl-piperidin-1-yl)-1-benzyloxymethyl-2-oxo-ethyl]-3-m-tolyl-urea]
300 nM	Cc1cccc(NC(=O)N[C@H](COCc2ccccc2)C(=O)N2CCC(C(=O)c3ccccc3)CC2)c1 [1-[(R)-2-(4-Benzoyl-piperidin-1-yl)-1-benzyloxymethyl-2-oxo-ethyl]-3-m-tolyl-urea]
160 nM	Cc1cccc(NC(=O)N[C@H](COCc2ccccc2)C(=O)N2CCC(C(=O)Nc3ccccc3)CC2)c1 [1-[(R)-3-Benzyloxy-2-(3-m-tolyl-ureido)-propionyl]-piperidine-4-carboxylic acid phenylamide]
810 nM	Cc1cccc(NC(=O)N[C@H](CS(=O)(=O)Cc2ccccc2)C(=O)N2CCC(C(=O)c3ccccc3)CC2)c1 [1-[(S)-2-(4-Benzoyl-piperidin-1-yl)-2-oxo-1-phenylmethanesulfonylmethyl-ethyl]-3-m-tolyl-urea]
230 nM	Cc1cccc(NC(=O)N[C@H](COCc2ccccc2)C(=O)N2CCC(C(=O)c3ccc(F)cc3)CC2)c1 [1-{1-((R)-Benzyloxymethyl)-2-[4-(4-fluoro-benzoyl)-piperidin-1-yl]-2-oxo-ethyl}-3-m-tolyl-urea]
1100 nM	Cc1cccc(NC(=O)N[C@H](CCCc2ccccc2)C(=O)N2CCC(C(=O)c3ccccc3)CC2)c1 [1-{1-[(R)-(4-Benzoyl-piperidin-1-yl)-oxo-methyl]-4-phenyl-butyl}-3-m-tolyl-urea]
440 nM	Cc1cccc(NC(=O)N[C@@H](C(=O)N2CCC(C(=O)c3ccccc3)CC2)[C@@H](C)OCc2ccccc2)c1 [1-{(R)-1-[(R)-(4-Benzoyl-piperidin-1-yl)-oxo-methyl]-2-benzyloxy-propyl}-3-m-tolyl-urea]
> 10000 nM	Cc1cccc(NC(=O)N[C@H](CCC(=O)OCc2ccccc2)C(=O)N2CCC(NC(=O)c3ccccc3)CC2)c1 [5-(4-Benzoylamino-piperidin-1-yl)-5-(R)-oxo-4-(3-m-tolyl-ureido)-pentanoic acid benzyl ester]
2000 nM	Cc1cccc(NC(=O)N[C@H](CCC(=O)OCc2ccccc2)C(=O)N2CCC(C(=O)Nc3ccccc3)CC2)c1 [5-(R)-Oxo-5-(4-phenylcarbamoyl-piperidin-1-yl)-4-(3-m-tolyl-ureido)-pentanoic acid benzyl ester]
1500 nM	Cc1cccc(NC(=O)N[C@H](COC(=O)N(C)C)C(=O)N2CCC(C(=O)c3ccccc3)CC2)c1 [Dimethyl-carbamic acid (R)-3-(4-benzoyl-piperidin-1-yl)-3-oxo-2-(3-m-tolyl-ureido)-propyl ester]
180 nM	Cc1cccc(NC(=O)N[C@H](COC(=O)N2CCOCC2)C(=O)N2CCC(C(=O)c3ccccc3)CC2)c1 [Morpholine-4-carboxylic acid (R)-3-(4-benzoyl-piperidin-1-yl)-3-oxo-2-(3-m-tolyl-ureido)-propyl ester]
120 nM	Cc1cccc(NC(=O)N[C@H](COC(=O)Nc2ccccc2)C(=O)N2CCC(C(=O)c3ccccc3)CC2)c1 [Phenyl-carbamic acid (R)-3-(4-benzoyl-piperidin-1-yl)-3-oxo-2-(3-m-tolyl-ureido)-propyl ester]
100 nM	Cc1cccc(NC(=O)N[C@H](COC(=O)N2CCCC2)C(=O)N2CCC(C(=O)c3ccccc3)CC2)c1 [Pyrrolidine-1-carboxylic acid (R)-3-(4-benzoyl-piperidin-1-yl)-3-oxo-2-(3-m-tolyl-ureido)-propyl ester]
34 nM	Cc1cccc(NC(=O)N[C@H](COC(=O)N2CCCC2)C(=O)N2CCC(C(=O)Nc3ccccc3)CC2)c1 [Pyrrolidine-1-carboxylic acid (R)-3-oxo-3-(4-phenylcarbamoyl-piperidin-1-yl)-2-(3-m-tolyl-ureido)-propyl ester]
3400 nM	CC(Cc1c[nH]c2ccccc12)(NC(=O)OC1[C@H]2C[C@@H]3C[C@@H](C[C@H]1C3)C2)C(=O)N1CCC(C(=O)c2ccccc2)CC1 (some centres not stated) [[2-(4-Benzoyl-piperidin-1-yl)-1-(1H-indol-3-ylmethyl)-1-methyl-2-oxo-ethyl]-carbamic acid adamantan-2-yl ester]
912 nM	CC(C)C[C@H](NC(=O)[C@H](Cc1c[nH]c2ccccc12)NC(=O)OC(C)(C)C)C(=O)N1CCC(C(=O)c2ccccc2)CC1 [[(S)-1-[(S)-1-(4-Benzoyl-piperidine-1-carbonyl)-3-methyl-butylcarbamoyl]-2-(1H-indol-3-yl)-ethyl]-carbamic acid tert-butyl ester]
> 10000 nM	CC(C)C[C@H](NC(=O)[C@H](Cc1c[nH]c2ccccc12)NC(=O)OC(C)(C)C)C(=O)N1CCC(Cc2ccccc2)CC1 [[(S)-1-[(S)-1-(4-Benzyl-piperidine-1-carbonyl)-3-methyl-butylcarbamoyl]-2-(1H-indol-3-yl)-ethyl]-carbamic acid tert-butyl ester]
> 10000 nM	CC(C)(C)OC(=O)N[C@@H](Cc1c[nH]c2ccccc12)C(=O)N1CCC(C(=O)c2ccccc2)CC1 [[(S)-2-(4-Benzoyl-piperidin-1-yl)-1-(1H-indol-3-ylmethyl)-2-oxo-ethyl]-carbamic acid tert-butyl ester]
